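Five compound concentrations were applied to cells in 96-well plates for 48 hours; endpoints were derived by simple linear interpolation of the resulting dose-response curve. The concentration for full growth arrest is given as TGI.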
Assays:
Test in all cases: DTP human tumour cell line panel, 48 h
786-0 renal = test system: 786-0 renal
A498 renal = test system: A498 renal
A549 NSCLC = test system: A549 NSCLC
ACHN renal = test system: ACHN renal
BT-549 breast = test system: BT-549 breast
CAKI-1 renal = test system: CAKI-1 renal
CCRF-CEM leukemia = test system: CCRF-CEM leukemia
COLO 205 colon = test system: COLO 205 colon
DU-145 prostate = test system: DU-145 prostate
EKVX NSCLC = test system: EKVX NSCLC
HCC-2998 colon = test system: HCC-2998 colon
HCT-116 colon = test system: HCT-116 colon
HCT-15 colon = test system: HCT-15 colon
HL-60(TB) leukemia = test system: HL-60(TB) leukemia
HOP-62 NSCLC = test system: HOP-62 NSCLC
HOP-92 NSCLC = test system: HOP-92 NSCLC
HS 578T breast = test system: HS 578T breast
HT29 colon = test system: HT29 colon
IGROV1 ovarian = test system: IGROV1 ovarian
K-562 leukemia = test system: K-562 leukemia
KM12 colon = test system: KM12 colon
M14 melanoma = test system: M14 melanoma
MALME-3M melanoma = test system: MALME-3M melanoma
MCF7 breast = test system: MCF7 breast
MDA-MB-231 breast = test system: MDA-MB-231 breast
MDA-MB-435 = test system: MDA-MB-435
MOLT-4 leukemia = test system: MOLT-4 leukemia
NCI-H226 lung = test system: NCI-H226 lung
NCI-H23 lung = test system: NCI-H23 lung
NCI-H460 lung = test system: NCI-H460 lung
NCI-H522 lung = test system: NCI-H522 lung
NCI/ADR-RES ovarian = test system: NCI/ADR-RES ovarian
OVCAR-3 ovarian = test system: OVCAR-3 ovarian
OVCAR-4 ovarian = test system: OVCAR-4 ovarian
OVCAR-5 ovarian = test system: OVCAR-5 ovarian
OVCAR-8 ovarian = test system: OVCAR-8 ovarian
PC-3 prostate = test system: PC-3 prostate
RPMI-8226 leukemia = test system: RPMI-8226 leukemia
RXF 393 renal = test system: RXF 393 renal
SF-268 CNS = test system: SF-268 CNS
SF-295 CNS = test system: SF-295 CNS
SF-539 CNS = test system: SF-539 CNS
SK-MEL-2 melanoma = test system: SK-MEL-2 melanoma
SK-MEL-28 melanoma = test system: SK-MEL-28 melanoma
SK-MEL-5 melanoma = test system: SK-MEL-5 melanoma
SK-OV-3 ovarian = test system: SK-OV-3 ovarian
SN12C renal = test system: SN12C renal
SNB-19 CNS = test system: SNB-19 CNS
SNB-75 CNS = test system: SNB-75 CNS
SR leukemia = test system: SR leukemia
SW-620 colon = test system: SW-620 colon
T-47D breast = test system: T-47D breast
TK-10 renal = test system: TK-10 renal
U251 CNS = test system: U251 CNS
UACC-257 melanoma = test system: UACC-257 melanoma
UACC-62 melanoma = test system: UACC-62 melanoma
UO-31 renal = test system: UO-31 renal

SMILES: CCN(CC)Cc1cc(Nc2c3ccccc3nc3c4ccccc4n(C)c23)cc(CN(CC)CC)c1O
- TGI (786-0 renal): 14.9 µM
- TGI (A498 renal): 18.4 µM
- TGI (A549 NSCLC): 31.9 µM
- TGI (ACHN renal): 13.8 µM
- TGI (BT-549 breast): 11.1 µM
- TGI (CAKI-1 renal): 29.2 µM
- TGI (CCRF-CEM leukemia): 14.2 µM
- TGI (COLO 205 colon): 10.8 µM
- TGI (DU-145 prostate): 23.3 µM
- TGI (EKVX NSCLC): 21.4 µM
- TGI (HCC-2998 colon): 19.2 µM
- TGI (HCT-116 colon): 11 µM
- TGI (HCT-15 colon): 14.4 µM
- TGI (HL-60(TB) leukemia): 12.2 µM
- TGI (HOP-62 NSCLC): 20.4 µM
- TGI (HOP-92 NSCLC): 17.2 µM
- TGI (HS 578T breast): 26.6 µM
- TGI (HT29 colon): 11.8 µM
- TGI (IGROV1 ovarian): 24.6 µM
- TGI (K-562 leukemia): > 35 µM
- TGI (KM12 colon): 20.7 µM
- TGI (M14 melanoma): 3.37 µM
- TGI (MALME-3M melanoma): 5.25 µM
- TGI (MCF7 breast): 19.3 µM
- TGI (MDA-MB-231 breast): 13.4 µM
- TGI (MDA-MB-435): 10.2 µM
- TGI (MOLT-4 leukemia): > 33.3 µM
- TGI (NCI-H226 lung): 18.4 µM
- TGI (NCI-H23 lung): 27 µM
- TGI (NCI-H460 lung): 16 µM
- TGI (NCI-H522 lung): 4.77 µM
- TGI (NCI/ADR-RES ovarian): 8.89 µM
- TGI (OVCAR-3 ovarian): 11.2 µM
- TGI (OVCAR-4 ovarian): 18 µM
- TGI (OVCAR-5 ovarian): 22.1 µM
- TGI (OVCAR-8 ovarian): 20.8 µM
- TGI (PC-3 prostate): 11.8 µM
- TGI (RPMI-8226 leukemia): > 100 µM
- TGI (RXF 393 renal): 10.1 µM
- TGI (SF-268 CNS): 28.8 µM
- TGI (SF-295 CNS): 17.6 µM
- TGI (SF-539 CNS): 15.2 µM
- TGI (SK-MEL-2 melanoma): 7.6 µM
- TGI (SK-MEL-28 melanoma): 6.34 µM
- TGI (SK-MEL-5 melanoma): 3.72 µM
- TGI (SK-OV-3 ovarian): 32.5 µM
- TGI (SN12C renal): 20.4 µM
- TGI (SNB-19 CNS): 27.4 µM
- TGI (SNB-75 CNS): 25.2 µM
- TGI (SR leukemia): 10.7 µM
- TGI (SW-620 colon): 13.3 µM
- TGI (T-47D breast): 15.7 µM
- TGI (TK-10 renal): 28.1 µM
- TGI (U251 CNS): 20.1 µM
- TGI (UACC-257 melanoma): 7.07 µM
- TGI (UACC-62 melanoma): 10.4 µM
- TGI (UO-31 renal): 6.68 µM

Source: PubChem BioAssay (NCI)
